Molecular target: T1, HERC4 Probable E3 ubiquitin-protein ligase HERC4 (Homo sapiens, UniProt Q5GLZ8)
T1 construct: Cells were resuspended in cold PBS on ice and sonicated with a probe sonicator to achieve lysis; endogenous in cells
T1 sequence (Q5GLZ8 1-1057): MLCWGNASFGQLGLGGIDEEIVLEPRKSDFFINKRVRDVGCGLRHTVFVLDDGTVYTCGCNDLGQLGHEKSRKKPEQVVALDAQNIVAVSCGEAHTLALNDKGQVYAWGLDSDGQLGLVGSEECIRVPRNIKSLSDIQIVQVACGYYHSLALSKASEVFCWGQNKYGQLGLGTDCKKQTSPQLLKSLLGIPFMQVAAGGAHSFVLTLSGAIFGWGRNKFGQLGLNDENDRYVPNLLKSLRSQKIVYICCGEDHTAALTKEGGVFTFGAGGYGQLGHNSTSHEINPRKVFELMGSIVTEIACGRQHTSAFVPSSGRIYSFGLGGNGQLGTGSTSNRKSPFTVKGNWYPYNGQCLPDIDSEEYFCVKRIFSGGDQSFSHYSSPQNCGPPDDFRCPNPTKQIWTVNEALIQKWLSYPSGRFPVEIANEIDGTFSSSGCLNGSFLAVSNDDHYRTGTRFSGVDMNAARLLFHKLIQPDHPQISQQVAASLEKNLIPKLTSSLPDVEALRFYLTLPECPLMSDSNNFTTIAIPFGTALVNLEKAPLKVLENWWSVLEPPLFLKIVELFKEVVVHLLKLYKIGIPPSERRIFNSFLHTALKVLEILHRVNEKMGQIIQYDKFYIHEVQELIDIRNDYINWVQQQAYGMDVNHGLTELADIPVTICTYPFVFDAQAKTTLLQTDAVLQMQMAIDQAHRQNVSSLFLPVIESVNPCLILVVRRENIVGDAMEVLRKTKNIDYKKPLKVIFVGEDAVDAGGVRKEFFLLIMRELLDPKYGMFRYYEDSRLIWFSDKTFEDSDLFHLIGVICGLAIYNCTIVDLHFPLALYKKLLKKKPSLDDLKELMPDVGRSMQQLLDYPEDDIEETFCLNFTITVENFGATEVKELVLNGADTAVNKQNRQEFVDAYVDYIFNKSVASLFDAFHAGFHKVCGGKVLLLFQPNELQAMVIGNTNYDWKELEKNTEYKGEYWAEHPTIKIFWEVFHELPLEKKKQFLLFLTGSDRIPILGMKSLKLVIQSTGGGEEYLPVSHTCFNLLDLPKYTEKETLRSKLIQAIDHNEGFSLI
Assay: Cysteine liganding, probe competition
Type: binding
Procedure, shortened: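 Probe competition in native proteome: 5 mg/ml lysate, compound 1 hr 25° C, then desthiobiotin iodoacetamide (10 mM stock) 1 hr 25° C; acetone ppt, urea/DTT reduction, iodoacetamide alkylation, trypsin, streptavidin pull-down.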

Row | Structure (SMILES) | Liganded (HERC4 Res# 60, uniprot Q5GLZ8) | 100 Max (uniprot Q5GLZ8) | 100 ave (uniprot Q5GLZ8) | 500 ave (uniprot Q5GLZ8) | 500 Max (uniprot Q5GLZ8, unit assumed)
1 | COc1ccc2c(c1)CCCN2C(=O)CCl [KB02] | YES | – | – | – | –
2 | O=C(CCl)Nc1cc(C(F)(F)F)cc(C(F)(F)F)c1 [KBO3] | – | 42.0 | 15.4 | 58.8 | 62.3%
